Source: US9884048B2, “ERK inhibitors” (Merck Sharp & Dohme Corp., priority 2014, dated 2018)

biological target: phosphorylated active hERK2 enzyme (Homo sapiens (Human), UniProt P28482); details: read-out: ERK2 IC50; IMAP-FP assay; 0.5 nM hERK2, 30 μM ATP; 10 point titration, 3 μM starting concentration
Sequence (P28482 whole entry): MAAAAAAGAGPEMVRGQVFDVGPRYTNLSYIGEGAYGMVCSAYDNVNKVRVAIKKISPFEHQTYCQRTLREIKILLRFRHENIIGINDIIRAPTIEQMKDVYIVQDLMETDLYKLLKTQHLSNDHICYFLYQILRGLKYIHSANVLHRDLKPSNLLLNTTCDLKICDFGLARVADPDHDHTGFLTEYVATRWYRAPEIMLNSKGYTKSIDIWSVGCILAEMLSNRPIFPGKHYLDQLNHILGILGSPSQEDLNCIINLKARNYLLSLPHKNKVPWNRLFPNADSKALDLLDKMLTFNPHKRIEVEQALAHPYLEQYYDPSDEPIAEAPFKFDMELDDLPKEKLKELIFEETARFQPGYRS
Protocol: Active Human ERK2 (hERK2) Activity Assay:
Activated ERK2 activity was determined in an IMAP-FP assay (Molecular Devices). […] The final reaction in each well of 25 μL consists of 0.5 nM hERK2, 900 nM unlabeled peptide, 80 nM labeled-peptide, and 30 μM ATP. Phosphorylation reactions were allowed to proceed for 60 minutes and were immediately quenched by the addition of 60 μL IMAP detection beads (1:1000 dilutions) in IMAP binding buffer (Molecular Devices) with 24 mM NaCl. Plates were read on EnVision reader after 60 minutes binding equilibration using Fluorescence Polarization protocol (Perkin Elmer).

SMILES	IC50
Cc1cc(-n2ncc3cc(NC(=O)NCCOc4ccccc4F)ncc32)ccn1 [Example 87, 1-[2-(2-fluorophenoxy)ethyl]-3-[1-(2-methylpyridin-4-yl)-1H-pyrazolo[3,4-c]pyridin-5-yl)urea]	6.38 nM
Cc1cc(-n2ncc3cc(NC(=O)NCCC(F)(F)F)ncc32)ccn1 [Example 88, 1-[1-(2-methylpyridin-4-yl)-1H-pyrazolo[3,4-c]pyridin-5-yl]-3-(3,3,3-trifluoropropyl)urea]	46.3 nM
Cc1cc(-n2ncc3cc(NC(=O)N[C@H](CCO)c4ccccc4)ncc32)ccn1 [Example 89, 1-[(1R)-3-hydroxy-1-phenylpropyl]-3-[1-(2-methylpyridin-4-yl)-1H-pyrazolo[3,4-c]pyridin-5-yl)urea]	0.821 nM
COC[C@@H](NC(=O)Nc1cc2cnn(-c3ccnc(C)c3)c2cn1)c1ccccc1 [Example 90, 1-[(1S)-2-methoxy-1-phenylethyl]-3-[1-(2-methylpyridin-4-yl)-1H-pyrazolo[3,4-c]pyridin-5-yl)urea]	0.68 nM
Cc1cc(-n2ncc3cc(NC(=O)NCc4ccc(N5CCCC5=O)cc4)ncc32)ccn1 [Example 91, 1-[1-(2-methylpyridin-4-yl)-1H-pyrazolo[3,4-c]pyridin-5-yl]-3-[4-(2-oxopyrrolidin-1-yl)benzyl]urea]	332 nM
CNC(=O)c1ccc(CNC(=O)Nc2cc3cnn(-c4ccnc(C)c4)c3cn2)cc1 [Example 92, N-methyl-4-[({[1-(2-methylpyridin-4-yl)-1H-pyrazolo[3,4-c]pyridin-5-yl]carbamoyl}amino)methyl] benzamide]	801 nM
Cc1cc(-n2ncc3cc(NC(=O)NCc4cccc(S(C)(=O)=O)c4)ncc32)ccn1 [Example 93, 1-[1-(2-methylpyridin-4-yl)-1H-pyrazolo[3,4-c]pyridin-5-yl]-3-[3-(methylsulfonyl)-benzyl]urea]	1.44 nM
Cc1cc(-n2ncc3cc(NC(=O)NCc4cccc(-c5ncco5)c4)ncc32)ccn1 [Example 94, 1-[1-(2-methylpyridin-4-yl)-1H-pyrazolo[3,4-c]pyridin-5-yl]-3-[3-(1,3-oxazol-2-yl)benzyl]urea]	13.3 nM
Cc1cc(-n2ncc3cc(NC(=O)NCCOCc4ccccc4)ncc32)ccn1 [Example 95, 1-[2-(benzyloxy)ethyl]-3-[1-(2-methylpyridin-4-yl)-1H-pyrazolo[3,4-c]pyridin-5-yl]urea]	5.4 nM
Cc1cc(-n2ncc3cc(NC(=O)NCCNCc4ccccc4)ncc32)ccn1 [Example 96, 1-[2-(benzylamino)ethyl]-3-[1-(2-methylpyridin-4-yl)-1H-pyrazolo[3,4-c]pyridin-5-yl]urea]	19.1 nM
CNC(=O)c1cccc(CNC(=O)Nc2cc3cnn(-c4ccnc(C)c4)c3cn2)c1 [Example 97, N-methyl-3-[({[1-(2-methylpyridin-4-yl)-1H-pyrazolo[3,4-c]pyridin-5-yl]carbamoyl}amino)methyl] benzamide]	3.39 nM
Cc1cc(-n2ncc3cc(NC(=O)NCc4cccc(-c5ccon5)c4)ncc32)ccn1 [Example 98, 1-(3-isoxazol-3-ylbenzyl)-3-[1-(2-methylpyridin-4-yl)-1H-pyrazolo[3,4-c]pyridin-5-yl]urea]	1.68 nM
Cc1cc(-n2ncc3cc(NC(=O)NCC4Cc5ccccc5N(C)C4)ncc32)ccn1 (centres unmarked) [Example 99, 1-[1-(2-methylpyridin-4-yl)-1H-pyrazolo[3,4-c]pyridin-5-yl]-3-[(1-methyl-1,2,3,4-tetrahydroquinolin-3-yl)methyl]urea]	2.31 nM
Cc1cc(-n2ncc3cc(NC(=O)NCC4(N(C)C)CCCCC4)ncc32)ccn1 [Example 100, 1-{[1-(dimethylamino)cyclohexyl]methyl}-3-[1-(2-methylpyridin-4-yl)-1H-pyrazolo[3,4-c]pyridin-5-yl)urea]	1210 nM
Cc1cc(-n2ncc3cc(NC(=O)N[C@H]4[C@H](c5ccccc5C)CN(C)[C@H]4C)ncc32)ccn1 [Example 101, 1-[(2S,3S,4R)-1,2-dimethyl-4-(2-methylphenyl)-pyrrolidin-3-yl]-3-[1-(2-methylpyridin-4-yl)-1H-pyrazolo[3,4-c]pyridin-5-yl)urea]	0.5 nM
Cc1cc(-n2ncc3cc(NC(=O)N[C@H]4[C@H](c5ccccc5C)CN(C)C4(C)C)ncc32)ccn1 [Example 102, 1-[1-(2-methylpyridin-4-yl)-1H-pyrazolo[3,4-c]pyridin-5-yl]-3-[(3S,4R)-1,2,2-trimethyl-4-(2-methylphenyl)pyrrolidin-3-yl)urea]	235 nM
Cc1cc(-n2ncc3cc(NC(=O)N[C@@H]4CN(C)C(C)(C)[C@H]4c4ccccc4C)ncc32)ccn1 [Example 103, 1-[1-(2-methylpyridin-4-yl)-1H-pyrazolo[3,4-c]pyridin-5-yl]-3-[(3S,4S)-1,5,5-trimethyl-4-(2-methylphenyl)pyrrolidin-3-yl)urea]	1.14 nM
Cc1cc(-n2ncc3cc(NC(=O)N[C@@H]4[C@@H](C)N(C)C[C@H]4c4ccccc4C)ncc32)ccn1 [Example 104, 1-[(2R,3S,4R)-1,2-dimethyl-4-(2-methyl-phenyl)pyrrolidin-3-yl]-3-[1-(2-methylpyridin-4-yl)-1H-pyrazolo[3,4-c]pyridin-5-yl]urea]	35.5 nM

SMILES	IC50
Cc1cc(-n2ncc3cc(NC(=O)N[C@@H]4CN(C)[C@@H](C)[C@H]4c4ccccc4C)ncc32)ccn1 [Example 105, 1-[(3S,4S,5S)-1,5-dimethyl-4-(2-methylphenyl)-pyrrolidin-3-yl]-3-[1-(2-methylpyridin-4-yl)-1H-pyrazolo[3,4-c]pyridin-5-yl)urea]	2.15 nM
Cc1cc(-n2ncc3cc(NC(=O)N[C@@H]4CN(C)[C@H](C)[C@H]4c4ccccc4C)ncc32)ccn1 [Example 106, 1-[(3S,4S,5R)-1,5-dimethyl-4-(2-methylphenyl)-pyrrolidin-3-yl]-3-[1-(2-methylpyridin-4-yl)-1H-pyrazolo[3,4-c]pyridin-5-yl)urea]	1.52 nM
Cc1cc(-n2ncc3cc(NC(=O)N[C@H]4[C@H](c5ccccc5)CN(C)C45COC5)ncc32)ccn1 [Example 107, 1-[(7R,8S)-5-methyl-7-phenyl-2-oxa-5-azaspiro[3.4]oct-8-yl]-3-[1-(2-methylpyridin-4-yl)-1H-pyrazolo[3,4-c]pyridin-5-yl)urea]	9.04 nM
Cc1cc(-n2ncc3cc(NC(=O)NCc4cn(C)cn4)ncc32)ccn1 [Example 108, 1-[(1-methyl-1H-imidazol-4-yl)methyl]-3-[1-(2-methylpyridin-4-yl)-1H-pyrazolo[3,4-c]pyridin-5-yl)urea]	284 nM
Cc1cc(-n2ncc3cc(NC(=O)NCCN4CCOCC4)ncc32)ccn1 [Example 109, 1-[1-(2-methylpyridin-4-yl)-1H-pyrazolo[3,4-c]pyridin-5-yl]-3-(2-morpholin-4-ylethyl)urea]	627 nM
Cc1cc(-n2ncc3cc(NC(=O)NCCF)ncc32)ccn1 [Example 110, 1-(2-fluoroethyl)-3-[1-(2-methylpyridin-4-yl)-1H-pyrazolo[3,4-c]pyridin-5-yl]urea]	106 nM
COCCNC(=O)Nc1cc2cnn(-c3ccnc(C)c3)c2cn1 [Example 111, 1-(2-methoxyethyl)-3-[1-(2-methylpyridin-4-yl)-1H-pyrazolo[3,4-c]pyridin-5-yl)urea]	81.8 nM
Cc1cc(-n2ncc3cc(NC(=O)N[C@@H]4CN(C)C[C@H]4c4cccnc4)ncc32)ccn1 [Example 112, 1-[1-(2-methylpyridin-4-yl)-1H-pyrazolo[3,4-c]pyridin-5-yl]-3-[(3S,4R)-1-methyl-4-pyridin-3-ylpyrrolidin-3-yl)urea]	48.7 nM
Cc1cc(-n2ncc3cc(NC(=O)N[C@H]4CN(C)C[C@@H]4c4sccc4C)ncc32)ccn1 [Example 113, 1-[(3R,4S)-1-methyl-4-(3-methylthiophen-2-yl)pyrrolidin-3-yl]-3-[1-(2-methylpyridin-4-yl)-1H-pyrazolo[3,4-c]pyridin-5-yl)urea]	7.11 nM
Cc1cc(-n2ncc3cc(NC(=O)NCc4c(-c5ccccc5)noc4C)ncc32)ccn1 [Example 114, 1-[(5-methyl-3-phenyl-isoxazol-4-yl)methyl]-3-[1-(2-methylpyridin-4-yl)-1H-pyrazolo[3,4-c]pyridin-5-yl)urea]	2.14 nM
Cc1cc(-n2ncc3cc(NC(=O)N[C@H]4CN(C)C[C@@H]4CCc4ccccc4)ncc32)ccn1 [Example 115, 1-[(3R,4S)-1-methyl-4-(2-phenylethyl)pyrrolidin-3-yl]-3-[1-(2-methylpyridin-4-yl)-1H-pyrazolo[3,4-c]-pyridin-5-yl)urea]	0.689 nM
Cc1cc(-n2ncc3cc(NC(=O)NCc4c(C)nn(C)c4C)ncc32)ccn1 [Example 116, 1-[1-(2-methylpyridin-4-yl)-1H-pyrazolo[3,4-c]pyridin-5-yl]-3-[(1,3,5-trimethyl-1H-pyrazol-4-yl)methyl]urea]	27.6 nM
Cc1cc(-n2ncc3cc(NC(=O)NCCc4c(C)noc4C)ncc32)ccn1 [Example 117, 1-[2-(3,5-dimethylisoxazol-4-yl)ethyl]-3-[1-(2-methylpyridin-4-yl)-1H-pyrazolo[3,4-c]pyridin-5-yl)urea]	16.4 nM
Cc1cc(-n2ncc3cc(NC(=O)NCc4nonc4C)ncc32)ccn1 [Example 118, 1-[(4-methyl-1,2,5-oxadiazol-3-yl)methyl]-3-[1-(2-methylpyridin-4-yl)-1H-pyrazolo[3,4-c]pyridin-5-yl]urea]	5.38 nM
Cc1cc(-n2ncc3cc(NC(=O)NCc4cc(C)nn4C)ncc32)ccn1 [Example 119, 1-[(1,3-dimethyl-1H-pyrazol-5-yl)methyl]-3-[1-(2-methylpyridin-4-yl)-1H-pyrazolo[3,4-c]pyridin-5-yl)urea]	96.6 nM
Cc1cc(-n2ncc3cc(NC(=O)NCC(C)O)ncc32)ccn1 (centres unmarked) [Example 120, 1-(2-hydroxypropyl)-3-[1-(2-methylpyridin-4-yl)-1H-pyrazolo[3,4-c]pyridin-5-yl)urea]	108 nM
Cc1cc(-n2ncc3cc(NC(=O)NC4(C#N)CC4)ncc32)ccn1 [Example 121, 1-(1-cyanocyclopropyl)-3-[1-(2-methylpyridin-4-yl)-1H-pyrazolo[3,4-c]pyridin-5-yl]urea]	1810 nM
